Measured values from ChEMBL document CHEMBL1201862, “PubChem BioAssay data set” (2004).
Activity calls are given as the source filed them.

Tests used:
cells = format: functional
Caspase-3 = target: T1, Caspase-3 (Homo sapiens, UniProt P42574); format: functional;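 note: Dose-response selectivity test against caspase-3 for candidate inhibitors of sentrin-specific proteases (SENPs)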
T1 sequence (P42574 whole entry): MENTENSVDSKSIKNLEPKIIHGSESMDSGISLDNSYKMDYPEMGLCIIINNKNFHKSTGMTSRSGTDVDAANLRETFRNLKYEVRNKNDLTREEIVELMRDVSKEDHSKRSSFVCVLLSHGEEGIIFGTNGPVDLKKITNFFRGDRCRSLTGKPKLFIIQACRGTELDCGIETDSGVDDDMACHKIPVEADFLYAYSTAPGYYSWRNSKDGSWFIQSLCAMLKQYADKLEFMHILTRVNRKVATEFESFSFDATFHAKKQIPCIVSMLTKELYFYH

[1] = THP-1 cell cytotoxicity, dose response, cytotoxicity control for non-replicating M. tuberculosis project (AID 489025); format: functional
[2] = target: Nuclear receptor subfamily 5 group A member 2 (Homo sapiens, UniProt O00482); format: functional, cell-based;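 note: HEK293T cells transfected with LRH-1 and a StAR promoter luciferase reporter; potency for inhibitors that lower LRH-1 driven reporter light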
Sequence of Nuclear receptor subfamily 5 group A member 2 (O00482 whole entry): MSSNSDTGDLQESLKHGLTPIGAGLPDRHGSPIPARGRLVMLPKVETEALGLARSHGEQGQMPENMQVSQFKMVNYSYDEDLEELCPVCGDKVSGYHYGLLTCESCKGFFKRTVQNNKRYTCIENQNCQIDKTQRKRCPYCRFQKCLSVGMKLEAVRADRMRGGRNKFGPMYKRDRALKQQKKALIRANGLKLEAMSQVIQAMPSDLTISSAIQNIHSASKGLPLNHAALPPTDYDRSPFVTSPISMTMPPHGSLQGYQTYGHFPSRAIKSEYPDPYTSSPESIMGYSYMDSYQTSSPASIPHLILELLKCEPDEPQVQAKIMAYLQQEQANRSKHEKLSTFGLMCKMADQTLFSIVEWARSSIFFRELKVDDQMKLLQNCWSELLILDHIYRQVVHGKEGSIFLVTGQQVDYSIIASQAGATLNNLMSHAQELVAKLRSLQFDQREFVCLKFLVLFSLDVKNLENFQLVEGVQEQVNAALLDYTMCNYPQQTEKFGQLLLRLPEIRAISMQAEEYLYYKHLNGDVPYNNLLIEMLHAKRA

[3] = target: T2, Sentrin-specific protease 8 (Homo sapiens, UniProt Q96LD8); format: functional;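 note: luminescence read-out of SENP8 inhibition, dose-response confirmation following an ultra-high-throughput screen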
T2 sequence (Q96LD8 whole entry): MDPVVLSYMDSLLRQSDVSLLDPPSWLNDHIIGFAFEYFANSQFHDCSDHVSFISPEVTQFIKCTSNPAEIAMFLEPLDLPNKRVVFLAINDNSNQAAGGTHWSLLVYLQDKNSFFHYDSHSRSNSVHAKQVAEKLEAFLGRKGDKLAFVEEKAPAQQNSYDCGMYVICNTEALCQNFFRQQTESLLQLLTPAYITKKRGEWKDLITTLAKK

HEK293 [4] = experiment: NOD2 signaling inhibitors in MDP-stimulated cells, cell-based, uHTS, luminescence (AID 2001); format: functional; conditions: Homo sapiens
[5] = target: T3, Sentrin-specific protease 6 (Homo sapiens, UniProt Q9GZR1); format: functional;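 note: Luminescence-based dose-response confirmatory assay of SENP6 inhibition, following up an ultra-high-throughput screen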
T3 sequence (Q9GZR1 whole entry): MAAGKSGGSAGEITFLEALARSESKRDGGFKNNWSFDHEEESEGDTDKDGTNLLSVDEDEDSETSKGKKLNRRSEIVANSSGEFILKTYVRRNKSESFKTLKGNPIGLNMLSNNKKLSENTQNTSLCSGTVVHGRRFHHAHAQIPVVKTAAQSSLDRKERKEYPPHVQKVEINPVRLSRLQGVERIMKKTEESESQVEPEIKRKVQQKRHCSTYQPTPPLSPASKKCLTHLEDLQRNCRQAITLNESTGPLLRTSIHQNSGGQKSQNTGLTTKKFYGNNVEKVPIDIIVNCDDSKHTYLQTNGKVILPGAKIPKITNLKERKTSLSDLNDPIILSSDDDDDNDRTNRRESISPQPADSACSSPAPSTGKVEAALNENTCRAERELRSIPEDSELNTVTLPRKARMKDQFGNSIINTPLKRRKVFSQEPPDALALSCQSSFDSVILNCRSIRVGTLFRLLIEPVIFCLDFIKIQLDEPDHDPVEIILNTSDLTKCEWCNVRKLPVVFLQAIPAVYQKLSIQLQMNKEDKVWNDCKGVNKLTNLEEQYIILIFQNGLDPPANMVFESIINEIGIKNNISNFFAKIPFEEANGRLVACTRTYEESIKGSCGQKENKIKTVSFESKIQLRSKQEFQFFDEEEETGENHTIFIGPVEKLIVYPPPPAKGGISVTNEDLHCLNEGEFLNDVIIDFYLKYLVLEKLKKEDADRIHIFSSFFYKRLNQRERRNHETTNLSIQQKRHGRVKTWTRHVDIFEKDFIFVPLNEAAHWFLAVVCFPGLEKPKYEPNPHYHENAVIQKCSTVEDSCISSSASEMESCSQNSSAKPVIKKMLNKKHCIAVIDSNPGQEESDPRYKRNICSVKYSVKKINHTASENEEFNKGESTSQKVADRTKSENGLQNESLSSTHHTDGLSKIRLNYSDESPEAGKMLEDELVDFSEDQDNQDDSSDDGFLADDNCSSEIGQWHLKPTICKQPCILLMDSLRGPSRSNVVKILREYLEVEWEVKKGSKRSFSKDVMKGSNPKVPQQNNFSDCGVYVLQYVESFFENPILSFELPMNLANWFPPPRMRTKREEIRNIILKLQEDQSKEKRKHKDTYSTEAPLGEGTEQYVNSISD

HEK293 [6] = experiment: cells; format: functional, cell-based; conditions: Homo sapiens
HEK293 [7] = experiment: inhibition of NOD1-driven NF-kB reporter – cell-based, luminescence, uHTS, primary screen (AID 1578); format: functional; conditions: Homo sapiens
Steroidogenic factor 1 = Steroidogenic factor 1 (Homo sapiens, UniProt Q13285); experiment: Counterscreen for inverse agonists of the liver receptor homolog-1 (LRH-1; NR5A2): Luminescence-based cell-based high throughput dose response assay to identify inverse agonists of the Steroidogenic Factor 1 Nuclear Receptor (SF1; NR5A1).; format: functional
Sequence of Steroidogenic factor 1 (Q13285 whole entry): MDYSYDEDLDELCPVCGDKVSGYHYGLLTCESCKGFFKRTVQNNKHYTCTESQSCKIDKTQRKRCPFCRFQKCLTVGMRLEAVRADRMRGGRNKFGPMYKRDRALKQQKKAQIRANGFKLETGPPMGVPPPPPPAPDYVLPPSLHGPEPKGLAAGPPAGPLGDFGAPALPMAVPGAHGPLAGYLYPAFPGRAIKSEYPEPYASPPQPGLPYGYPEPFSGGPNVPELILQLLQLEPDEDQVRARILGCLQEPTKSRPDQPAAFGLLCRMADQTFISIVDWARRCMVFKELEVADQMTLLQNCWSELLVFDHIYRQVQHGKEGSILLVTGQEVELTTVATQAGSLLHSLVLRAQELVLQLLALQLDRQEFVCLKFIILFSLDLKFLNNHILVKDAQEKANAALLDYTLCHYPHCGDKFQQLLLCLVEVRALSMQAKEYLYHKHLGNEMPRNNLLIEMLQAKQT

[8] = nonselective StAR promoter luciferase inhibitors – cell-based, luminescence, luciferase reporter, counter-screen for LRH-1 inverse agonist project, dose response (AID 651969); format: functional
[9] = target: T4, Sentrin-specific protease 7 (Homo sapiens, UniProt Q9BQF6); format: functional;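 note: Luminescence-based dose-response confirmation of ultra-high-throughput screening hits, measuring inhibition of SENP7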
T4 sequence (Q9BQF6 whole entry): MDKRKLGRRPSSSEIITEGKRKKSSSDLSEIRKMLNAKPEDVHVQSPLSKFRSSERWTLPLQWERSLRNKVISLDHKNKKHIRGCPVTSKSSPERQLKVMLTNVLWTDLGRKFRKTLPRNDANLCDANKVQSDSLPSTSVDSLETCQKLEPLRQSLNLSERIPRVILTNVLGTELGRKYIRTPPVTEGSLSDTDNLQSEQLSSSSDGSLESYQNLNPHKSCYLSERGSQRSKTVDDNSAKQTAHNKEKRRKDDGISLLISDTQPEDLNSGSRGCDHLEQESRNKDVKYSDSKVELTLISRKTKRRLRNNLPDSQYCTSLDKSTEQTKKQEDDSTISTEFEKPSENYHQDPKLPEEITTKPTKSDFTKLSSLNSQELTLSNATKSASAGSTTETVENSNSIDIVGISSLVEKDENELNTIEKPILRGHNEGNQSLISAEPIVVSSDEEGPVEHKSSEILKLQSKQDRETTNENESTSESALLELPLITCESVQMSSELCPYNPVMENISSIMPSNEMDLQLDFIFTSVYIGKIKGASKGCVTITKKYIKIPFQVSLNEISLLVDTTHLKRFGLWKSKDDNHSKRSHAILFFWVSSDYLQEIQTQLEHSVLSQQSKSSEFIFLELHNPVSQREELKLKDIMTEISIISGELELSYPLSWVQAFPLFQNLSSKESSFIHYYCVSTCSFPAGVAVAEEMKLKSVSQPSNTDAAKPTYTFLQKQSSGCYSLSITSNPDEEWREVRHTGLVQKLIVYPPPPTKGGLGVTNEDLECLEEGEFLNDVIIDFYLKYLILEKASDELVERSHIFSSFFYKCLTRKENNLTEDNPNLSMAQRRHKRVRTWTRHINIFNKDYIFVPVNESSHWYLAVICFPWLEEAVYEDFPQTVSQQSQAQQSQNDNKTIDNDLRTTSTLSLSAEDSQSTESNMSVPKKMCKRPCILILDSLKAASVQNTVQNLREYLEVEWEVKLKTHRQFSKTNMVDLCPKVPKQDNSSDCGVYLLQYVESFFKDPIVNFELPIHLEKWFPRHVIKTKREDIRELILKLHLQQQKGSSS

HEK293 [10] = experiment: cells; format: functional, cell-based; conditions: Homo sapiens; remark: listed apart in the source
HEK293 [11] = experiment: cells; format: functional, cell-based; conditions: Homo sapiens; remark: listed apart in the source
[12] = target: Nucleotide-binding oligomerization domain-containing protein 2 (Homo sapiens, UniProt Q9HC29); experiment: inhibition of NOD2-driven NF-kB reporter – cell-based, luminescence, uHTS, HEK293 (AID 1566); format: functional
Sequence of Nucleotide-binding oligomerization domain-containing protein 2 (Q9HC29 whole entry, the tested form may be a part): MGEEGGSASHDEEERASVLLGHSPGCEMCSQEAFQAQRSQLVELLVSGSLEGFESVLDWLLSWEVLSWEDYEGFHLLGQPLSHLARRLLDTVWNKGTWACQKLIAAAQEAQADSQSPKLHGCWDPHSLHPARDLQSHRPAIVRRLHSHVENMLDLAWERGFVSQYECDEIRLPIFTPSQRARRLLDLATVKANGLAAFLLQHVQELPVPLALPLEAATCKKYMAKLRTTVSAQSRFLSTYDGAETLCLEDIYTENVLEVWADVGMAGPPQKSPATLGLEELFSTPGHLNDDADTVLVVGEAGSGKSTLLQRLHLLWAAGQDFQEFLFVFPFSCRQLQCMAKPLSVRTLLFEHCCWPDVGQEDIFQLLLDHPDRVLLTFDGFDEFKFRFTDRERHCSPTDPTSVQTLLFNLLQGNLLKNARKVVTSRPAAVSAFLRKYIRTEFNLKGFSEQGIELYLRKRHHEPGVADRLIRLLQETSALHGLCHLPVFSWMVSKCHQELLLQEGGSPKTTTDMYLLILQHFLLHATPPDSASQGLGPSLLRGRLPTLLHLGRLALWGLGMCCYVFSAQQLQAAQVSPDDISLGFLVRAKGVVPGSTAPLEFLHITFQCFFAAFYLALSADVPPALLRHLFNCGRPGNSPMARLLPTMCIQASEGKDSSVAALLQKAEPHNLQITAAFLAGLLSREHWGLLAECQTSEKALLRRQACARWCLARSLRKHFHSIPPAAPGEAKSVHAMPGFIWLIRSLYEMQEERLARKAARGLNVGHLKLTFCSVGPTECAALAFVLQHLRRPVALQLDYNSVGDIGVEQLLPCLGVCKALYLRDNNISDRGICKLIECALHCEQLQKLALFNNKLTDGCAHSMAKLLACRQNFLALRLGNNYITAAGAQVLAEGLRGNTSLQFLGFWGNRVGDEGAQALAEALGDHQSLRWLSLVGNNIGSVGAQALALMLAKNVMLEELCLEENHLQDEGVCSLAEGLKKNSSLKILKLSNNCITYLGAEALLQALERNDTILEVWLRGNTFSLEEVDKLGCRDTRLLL

Row | Structure (SMILES) | IC50 (cells) | IC50 (Caspase-3) | CC50 [1] | IC50 [2] | IC50 [3] | IC50 (HEK293 [4]) | IC50 [5] | IC50 (HEK293 [6]) | EC50 (HEK293 [7]) | IC50 (Steroidogenic factor 1) | IC50 [8] | IC50 [9] | IC50 (HEK293 [10]) | IC50 (HEK293 [11]) | EC50 [12]
1 | O=C(Nc1nc2c(Cl)cccc2s1)c1ccc([N+](=O)[O-])o1 | 10.4 µM (active) | 61.8 µM (active) | 39.3 µM (active) | 0.148 µM (active) | 32.9 µM (active) | 13.2 µM (inactive) | 20.3 µM (active) | 7.38 µM (active) | 5.52 µM (active) | 0.443 µM (active) | 35.9 µM (inactive) | 17.2 µM (active) | 18.6 µM (active) | – | –
2 | CCOC(=O)c1sc2ccccc2c1OC(=O)c1ccc(C)cc1 | – | – | – | – | – | 6.76 µM (active) | – | > 20 µM (inactive) | 10.7 µM (active) | – | – | – | 9.53 µM (active) | > 20 µM (inactive) | 2.22 µM (active)
